The term IC50 denotes the concentration that inhibits the measured activity by half.

The target of one assay is T1, Growth factor receptor-bound protein 2 (Homo sapiens, UniProt P62993). The assay can be described thus: Steady-state affinity constant for Grb2 SH2 domain binding by surface plasmon resonance.
Target sequence in this assay (P62993 whole entry, looked up, the tested form may be a part): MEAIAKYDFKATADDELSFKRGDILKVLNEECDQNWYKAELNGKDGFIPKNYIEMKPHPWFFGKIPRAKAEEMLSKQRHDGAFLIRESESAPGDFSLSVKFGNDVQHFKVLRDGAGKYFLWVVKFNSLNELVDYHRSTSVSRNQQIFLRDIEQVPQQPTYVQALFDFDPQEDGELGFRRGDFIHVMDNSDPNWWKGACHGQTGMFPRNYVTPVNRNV
In turn, `CC(=O)N[C@@H](Cc1ccc(OP(=O)(O)O)cc1)C(=O)NC1(C(=O)N[C@@H](CC(N)=O)C(=O)NCCCc2cccc3ccccc23)CCCCC1` registered a Keq of 0.24 µM.

In turn, `NC(=O)C[C@H](NC(=O)C1(NC(=O)[C@H](Cc2ccc(C(C(=O)O)C(=O)O)cc2)NC(=O)C(=O)O)CCCCC1)C(=O)NCCCc1cccc2ccccc12` had a Keq of 0.149 µM.

In turn, `NC(=O)C[C@H](NC(=O)C1(NC(=O)[C@H](Cc2ccc(CC(=O)O)cc2)NC(=O)C(=O)O)CCCCC1)C(=O)NCCCc1cccc2ccccc12` yielded a Keq of 6.11 µM.

In the case of `NC(=O)C[C@H](NC(=O)C1(NC(=O)[C@H](Cc2ccc(C(O)C(=O)O)cc2)NC(=O)C(=O)O)CCCCC1)C(=O)NCCCc1cccc2ccccc12` (stereo partly specified), the Keq came to 1.54 µM.

Consider `NC(=O)C[C@H](NC(=O)C1(NC(=O)[C@H](Cc2ccc(C(O)(C(=O)O)C(=O)O)cc2)NC(=O)C(=O)O)CCCCC1)C(=O)NCCCc1cccc2ccccc12`, for which the Keq turned out to be 0.27 µM.

The target in a further assay is T1, Growth factor receptor-bound protein 2. The assay is described as follows: Inhibition of Grb2 SH2 domain binding in ELISA. (In general: ELISA stands for enzyme-linked immunosorbent assay.)
Target sequence in this assay (P62993 whole entry, the tested form may be a part): as the sequence (P62993 whole entry, looked up, the tested form may be a part) above
Regarding `CC(=O)N[C@@H](Cc1ccc(OP(=O)(O)O)cc1)C(=O)NC1(C(=O)N[C@@H](CC(N)=O)C(=O)NCCCc2cccc3ccccc23)CCCCC1`, the IC50 amounted to 47 nM.

The values are drawn from ChEMBL document CHEMBL1145167, “Design and synthesis of 4-(alpha-hydroxymalonyl)phenylalanine as a new phosphotyrosyl mimetic and its use in growth factor receptor bound 2 src-homology 2 (Grb2 SH2) domain-binding peptides” (J Med Chem, 2005).
